According to PMC9171067, “A High Throughput Cell-Based Screen Assay for LINE-1 ORF1p Expression Inhibitors Using the In-Cell Western Technique” (Frontiers in Pharmacology, 2022):
Read-outs that look alike come from different tables or passages of the source.

Assays:
LINE-1 ORF1p expression [1] = assay: Immunoblotting of LINE-1 ORF1p in T-47D cells; format: cell-based, human; conditions: 48 h
Description: Cells were collected and lysed with NP-40 buffer (Beyotime). The protein lysis was boiled for 20 min at 100 C in SDS-PAGE loading buffer. Equal amounts of cell lysate were […]. Proteins were transferred onto a PVDF membrane, blocked with 5% skim milk, and probed with anti-ORF1p antibody (diluted 1:1000) and anti-β-actin antibody (diluted 1:5,000) at 4°C overnight. After four wash steps with PBS plus 0.1% Tween 20 (PBST), the membrane was incubated with 1:5,000 dilution of HRP-conjugated goat-anti-mouse, HRP-conjugated goat-anti-rabbit, IRDye® 800CW Goat anti-Rabbit 926–32,211 (1:10,000, LI-COR) and IRDye® 700CW Goat anti-Mouse 926–32,210 (1:10,000, LI-COR) secondary antibodies for 1 h at room temperature. After four wash steps with PBS plus 0.1% Tween 20 (PBST), signals were detected using Western Lightning chemiluminescence reagent or analyzed with the Odyssey infrared imaging system and the software program as specified in the Odyssey software manual.

[2] = tested on: LINE-1 retrotransposition; assay: LINE-1 retrotransposition dual-luciferase assay (pWA367 reporter) in HeLa cells; format: cell-based, human; conditions: 10 μM
Description: This assay is utilized to measure the influence of the compounds on LINE-1 retrotransposition or the L1 5′UTR promoter activity. A 200:1 ratio of FL-L1 or pWA367 and pCMV-Rluc was transfected into HeLa cells, Rluc was served as a control to normalize the Firefly luciferase activity level. Six hours post-transfection, cells were reseeded in 96-well plates, and the plates were incubated for up to 1 day. Next, compounds #1:Hydroxyprogesterone (10μM, 20 μM), # 2: 2,2':5′,2″-Terthiophene (10μM, 20 μM) and # 3: Ethynyl estradiol (10μM, 20 μM) were added. 72–96 h after adding tested compounds to the cells, 25 μl passive lysis buffer was added in each well to lyse cells, and then, 20 μl lysate was detected by dual-luciferase reporter assay system (Promega, USA). Furthermore, the activity levels of Renilla and Firefly luciferase were quantified using Promega Luciferase Assay Kit (Promega) on a Berthold microplate reader.

LINE-1 5'-UTR promoter = assay: L1-FL luciferase reporter driven by the LINE-1 5'-UTR promoter in 293 T cells; format: cell-based, human
NCl-H661 cells = assay: CCK8 cell proliferation assay, NCl-H661; format: cell-based, human; conditions: IFNα17 200 or 500 Units/mL, 6 days
Description: (§1) To analyze the anti-proliferation effects of the three compounds and IFN17α against carcinoma cells, NCI-H661, NCI-H446, T47-D, MRC-5 and WI-38 cell lines in the logarithmic phase were reseeded into 96-well plates (Nest Inc.) at a density of 1×10^4 cells/well and the plates were incubated for 24 h. Next, IFN17α (200U/mL) was incubated with NCI-H661, NCI-H446, T47-D and MRC-5 cells, compounds #1(Hydroxyprogesterone), #2 (2,2':5′,2″-Terthiophene) and #3 (Ethynyl estradiol) were added at the concentrations of 10μM and 20 μM respectively, for consecutive 6 days. Cells were incubated with 10 µl of the CCK-8 reagent (Vazyme) each day at 37°C for 2 h. The optical density (OD) at 450 nm was measured by a microplate reader (PerkinElmer Inc.) according to the manufacturer’s instructions. The experiments were repeated at least three times.

LINE-1 RNA = assay: RT-qPCR of LINE-1 RNA level in T-47D cells; format: cell-based, human; conditions: IFNα17 200 Units/mL, 48 h
Text: Total RNA was extracted from cells using TRIZOL Reagent (Invitrogen). RNA was reverse transcribed to cDNA using MLV Reverse Transcriptase (Invitrogen) with random primers. The cDNAs were quantified using SsoFast EvaGreen Supermix (Bio-Rad) with Bio Rad iCycler iQ5 Real-Time PCR systems. Primer sequences for cDNAs were as follows: (5′-AATGAGATCACATGGACACAGGAAG-3’/5′- TGTATACATGTGCCATGCTGGTGC-3′).

LINE-1 ORF1p expression [3] = assay: In-Cell Western (ICW) assay of LINE-1 ORF1p expression in T-47D cells; format: cell-based, human; conditions: for EC50: Homo sapiens, T47D, T-47D cells 15000/well, serially diluted compound, 24 h incubation, ICW, read-out: EC50 for diminishing LINE-1 ORF1p expression level; for Inhibition Activity (%) of LINE-1 ORF1p expression: ICW screen, T47D cells, compounds 10 μM, 48 h
Description: T-47D cells grown at 1×10^3 cells per well in 96-well plates (Corning Incorporated Costar, #3603). After 24 h incubation, chemical compounds (10 μM) were added to each well. After 48 h incubation, plates were fixed with 4% paraformaldehyde (PFA) for 20min at room temperature (RT). Then the cells were permeabilized with 0.2% Triton X-100 for 15min at RT, and blocked with Odyssey Blocking Buffer (TBS) (LI-COR, 9275000) for 1 h at RT. The cells were incubated at 4°C overnight with a rabbit monoclonal anti-ORF1p antibody (diluted 1:200, Abcam) and a mouse monoclonal anti-beta-actin antibody (diluted 1:250, Abcam) with gentle shakes. After five washes with PBS, the cells were stained with an IRDye® 800RD Goat anti-Rabbit antibody (diluted 1:400, LI-COR, #926–68071) and IRDye® 680CW Goat anti-Mouse antibody (1:600, LI-COR, #926–32210) at RT for 2 h. The microplates, were scanned with the Odyssey system (LI-COR), and the integrated fluorescence intensities representing the protein expression levels were acquired using Image Studio Ver 5.2 software ([Egorina et al., 2006]). Compared with DMSO control, compounds with an inhibition rate over 50% were defined as promising compounds.
(§2) The 50% cytotoxic concentration (CC50) values of 5 drug leads were measured using normal […] cell line HUVEC and breast cancer cell line T-47D at 6 different inhibitor concentrations. HUVEC and T47-D cell lines in the logarithmic phase were reseeded into 96-well plates (Nest Inc.) at a density of 1×10^3 cells/well and the plates were incubated for up to 2 days. At the end of each experiment, cells were incubated with 10 µl of the CCK-8 reagent (Vazyme) at 37°C for 2 h. The optical density (OD) at 450 nm was measured by a microplate reader (PerkinElmer Inc.) according to the manufacturer’s instructions. The data are expressed as % of the control. The experiments were repeated at least three times. The 50% effective concentration (EC50) of 5 drugs were measured using breast cancer cell line T-47D and 6 different inhibitor concentrations.

NCl-H446 cells = assay: CCK8 cell proliferation assay, NCl-H446; format: cell-based, human; conditions: IFNα17 200 or 500 Units/mL, 6 days
Description: as §1

T47D cells = assay: CCK8 cell proliferation assay, T47D; format: cell-based, human; conditions: IFNα17 500 Units/mL, 6 days
Description: as §1, with “Next, IFN17α (200U/mL) was incubated with NCI-H661, NCI-H446, T47-D and MRC-5 cells, compounds #1(Hydroxyprogesterone), #2 (2,2':5′,2″-Terthiophene) and #3 (Ethynyl estradiol) were added at the concentrations of 10μM and 20 μM respectively, for consecutive 6 days.” left out

[4] = CCK-8 cell viability (CC50) in T-47D cells; format: cell-based; conditions: human
Description: as §2

Which results are given for `Cc1cn([C@H]2C=C[C@@H](CO)O2)c(=O)[nH]c1=O` [d4T, reference compound]?
effect on LINE-1 ORF1p level by immunoblotting (LINE-1 ORF1p expression [1]): little effect; effect on LINE-1 retrotransposition (Fluc/Rluc) [2]: inhibited LINE-1 retrotransposition

Which “effect on luciferase value (L1-FL)” value (LINE-1 5'-UTR promoter; IFNα17 200 Unit/mL, 500 Unit/mL) does the source give for “IFNα17: interferon used as positive control in inhibiting LINE-1 ORF1p expression level in the ICW assay” here?
Its value is “mild effects”.

And the “effect of IFNα17 on proliferation of NCl-H661” value (NCl-H661 cells)?
The value was “significantly decrease”.

What about the “effect on LINE-1 ORF1p level by immunoblotting” value (LINE-1 ORF1p expression [1]) of the same compound?
The value was “obviously decrease ORF1p level in a dose-dependent manner”.

And the “suppression of LINE-1 RNA level” value (LINE-1 RNA)?
The value was “over 60%”.

And the “effect on ICW fluorescence value (ORF1p)” value (LINE-1 ORF1p expression [3]; T-47D cells, increasing doses of IFNα17)?
Its value is “decreased fluorescence value in a dose-dependent way”.

And the “effect of IFNα17 on proliferation of NCl-H446” value (NCl-H446 cells)?
Its value is “significantly decrease”.

And the “effect of IFNα17 on proliferation of T47D” value (T47D cells)?
The value was “inhibition became obvious”.

Which “suppression of luciferase value (L1-FL)” value (LINE-1 5'-UTR promoter; 10 μM) does the source give for `C#C[C@]1(O)CC[C@H]2[C@@H]3CCc4cc(O)ccc4[C@H]3CC[C@@]21C` [#3, Ethynyl estradiol] here?
The value was “over 60%”.

What about the CC50 ([4]; T-47D breast cancer cells, T-47D cells 1000/well, CCK-8, read-out: CC50) of the same compound?
The CC50 was 91.4 µM.

What about the EC50 (LINE-1 ORF1p expression [3]) of the same compound?
Its EC50 is 12.4 µM.

And the “Inhibition Activity (%) of LINE-1 ORF1p expression” value (LINE-1 ORF1p expression [3])?
The value was 60%.

And the “effect on LINE-1 retrotransposition (Fluc/Rluc)” value [2]?
Its value is “best potent activity”.

For `c1csc(-c2ccc(-c3cccs3)s2)c1` [#2, 2,2':5′,2″-Terthiophene], which “effect on luciferase value (L1-FL)” value (LINE-1 5'-UTR promoter; 10 μM) is on record?
Its value is “mild effects”.

What about the CC50 [4] of the same compound?
Its CC50 is 95.5 µM.

What about the EC50 (LINE-1 ORF1p expression [3]) of the same compound?
Its EC50 is 32.3 µM.

And the “Inhibition Activity (%) of LINE-1 ORF1p expression” value (LINE-1 ORF1p expression [3])?
The value was 56%.
